Experimental data taken from patent publication US8465780B2, “Borate micro emulsion and method for making the same” (Nisus Corporation, priority 2006, dated 2013).

Key:
algae = test: Algae growth suppression in lake water (Example 4); format: cell-based; settings: 0.1 weight percent in lake water, two months outside in sun; higher = more algal growth
Method: From this lake sample, three 1 liter glass beakers were each filled with 900 mL of lake water. […] Sodium tetraborate was added to a second beaker to provide a concentration of 0.1 weight percent sodium tetraborate. The third beaker was left as an untreated control. The three samples, which were collected in August, were then left outside, fully exposed to the sun, for a period of two months.
After the two month period, the samples were then visually inspected for algal growth. The samples were also analyzed using a Spectronic Genesys 20 spectrophotometer from Thermo Scientific. This analysis was conducted by testing for absorbance at 330 nm.

[1] = Borate dissolution test in 300 mm water column; format: physicochemical; settings: 0.2 g (0.08 weight %) in 250 ml deionized water, 300 mm column
Method: In this example, different forms of borates were added to columns of water and a swimming pool to determine their comparative dispersion and rate of dissolution characteristics.
Two hundred and fifty (250) ml of deionized water was placed in each of 4 measuring cylinders to give a 300 mm vertical column of water in each cylinder to mimic in small scale the depth of water in a swimming pool. […] The results of the addition were then observed visually and recorded.

[2] = Free chlorine and pH in 2000 gallon swimming pools (Example 6)
Method: In this example, different borates were added to swimming pools, together with a chlorine-based sanitizer, in order to measure pH and free chlorine (CY) levels in the swimming pools over a period it time.
Three substantially identical, 2000 gallon above-ground swimming pools were used for the tests. Each pool was initially filled with approximately 2000 gallons of tap water, and then 500 milliliters of lake water was added to each pool to inoculate the pool water with algae. The testing was conducted during the month of September at a location near Knoxville, Tenn.
In the first pool, approximately 4 pounds of sodium tetraborate was added to the pool water. […] The third pool was used as a control with no form of borate being added to the pool water. The borates in the first and second pools were then allowed to mix overnight.
The following morning, initial pH and chlorine measures were taken for each pool at approximately 9:45 am. Approximately 0.3 pounds of calcium hypochlorate was then added to the water in each of the three swimming pools at approximately 10 am. The pH and chlorine levels in each of the pools were then measured periodically over the course of the day.

O=BOB(O)OB(O)OB=O [Sodium tetraborate, sodium tetraborate]
Absorbance (Abs.) at 330 nm (algae): 0.01 Abs.

OB(O)O [boric acid, reference compound]
dispersion and dissolution, observed visually [1]: mostly float on top of the water and did not completely dissolve

O.O.O.O.O=BOB1OB(OB=O)OB2OB([O-])OB([O-])OB(O1)O2.[Na+].[Na+] [disodium octaborate tetrahydrate]
dispersion and dissolution, observed visually [1]: immediately disperse and fully dissolve in a matter of seconds

sodium hexaborate
pH for swimming pool water ([2]; 1:25 pm): 7.2-7.8
pH for swimming pool water ([2]; 2:10 pm): 7.2-7.8
pH for swimming pool water ([2]; 2:50 pm): 7.2-7.8
pH for swimming pool water ([2]; 3:30 pm): 7.2-7.8
pH for swimming pool water ([2]; 4:10 pm): 7.2-7.8
pH for swimming pool water ([2]; 5:00 pm): 7.2-7.8
pH for swimming pool water ([2]; 9:45 am, before calcium hypochlorate addition, 4 pounds borate per 2000 gallons): 7.2-7.8
pH for swimming pool water ([2]; 10:00 am, time of calcium hypochlorate addition): 7.2-7.8
pH for swimming pool water ([2]; 10:55 am): 7.2-7.8
pH for swimming pool water ([2]; 11:15 am): 7.8-8.4
pH for swimming pool water ([2]; 12:00 pm): 7.8-8.4
pH for swimming pool water ([2]; 12:40 pm): 7.8-8.4
